Measured values published in article PMC9704499 (European journal of medicinal chemistry, 2021).

System: Tau0N4R-TM-tGFP U2OS cells
Assay: Tau phosphorylation
Conditions: 25–100 μM, 6 hrs

Compound: c1ccc(CNc2nc(Nc3cc(C4CC4)[nH]n3)c3sccc3n2)cc1 [Compound 4, N2-benzyl-N4-(5-cyclopropyl-1H-pyrazol-3-yl)thieno[3,2-d]pyrimidine-2,4-diamine]
- cytotoxicity in bundle formation assay: cytotoxicity effects started to appear
